Several values for one entry are separate records, joined by “and”; a condition that tells them apart may be missing. Identical values can stand only once. No end group written: not given here.
Experiments:
Assay type in all cases: cell-based
primary human monocytes = test: CD169 expression after antagonist/inhibitor pre-treatment and sialokinin, monocytes; conditions: for CD 169 expression (MFI): monocytes 24 h, n = 5; for effect on sialokinin-mediated downregulation of CD169: pre-treatment 30 min before sialokinin, monocytes
Method: (§1) DEG analysis was performed using edgeR, with multiple testing corrected via the Benjamini–Hochberg FDR method. […] Relative expression levels of P-PI3K/PI3K (n = 4 biological replicates) and P-Akt/Akt (n = 5 biological replicates) in monocytes at the 20-min time point were quantified with ImageJ. Levels are expressed as fold change relative to the non-treated controls. Bar graphs represent the mean ± standard deviation (SD). […] CD169 levels at 24 h post-treatment were measured by mean fluorescence intensity (MFI) and expressed as fold change relative to non-treated controls. Statistical comparisons were performed using paired two-tailed t-test or Wilcoxon signed-rank test, depending on data distribution.
(§2) Freshly purified human monocytes and six-day-differentiated MDMs ([…] cells/well) were incubated with or without sialokinin peptides in complete IMDM supplemented with 10% (vol/vol) HS (Sigma-Aldrich) and 1% (vol/vol) penicillin-streptomycin. Untreated monocytes and MDMs served as no-treatment controls.
Following harvesting, human monocytes and MDMs were specifically stained for the surface markers: CD45, CD14, CCR2, HLA-DR, CD16, CD11b, and CD169 (for monocytes); or CD45, CD14, HLA-DR, CD64, CD86, CD163, CD206, and CD169 (for MDMs). Dead cells were excluded by staining with the LIVE/DEAD Fixable Aqua Dead Cell Stain Kit (Life Technologies). The stained cells were subsequently incubated with FACS lysing solution (BD Biosciences) to lyse the red blood cells. Data were acquired on a Fortessa flow cytometer (BD Biosciences) with BD FACSDiva software version 9.0. Data analysis was performed using FlowJo version 9.3.2 (Tree Star, Inc.).

PI3K = test: Western blot P-PI3K/PI3K, human monocytes; conditions: for effect on sialokinin-stimulated phosphorylation of PI3K: antagonist pre-treatment
Method: as §1, §2
(§3) To detect the phosphorylation status of PI3K/Akt kinases following sialokinin stimulation, cells were lysed with lysis buffer (Cell Signaling Technology) containing 2 mM PMSF. Lysates were separated by SDS-PAGE and subjected to western blotting using the following antibodies: P-PI3K (p85; Tyr458/p55; Tyr199, Cell Signaling Technology, 1:2000), PI3K (p85, Cell Signaling Technology, 1:2000), P-Akt (Ser473, Cell Signaling Technology, 1:2000), and Akt (Cell Signaling Technology, 1:2000). Signal intensities were visualized using a ChemiDoc imaging system (Bio-Rad) and quantified using Image Lab software version 6.0.1 (Bio-Rad).

Akt = test: Western blot P-Akt/Akt, human monocytes; conditions: for effect on sialokinin-stimulated phosphorylation of Akt: antagonist pre-treatment
Method: as §1, §2, §3

human NK1R [1] = target: T1, human NK1R (Homo sapiens, UniProt P25103)
T1 construct: expressed in transfected cells; host or cells: CHO (CHO-K1) cells, stably transfected; gift from Dr Shinya Oishi, Kyoto University
T1 sequence (P25103 whole entry): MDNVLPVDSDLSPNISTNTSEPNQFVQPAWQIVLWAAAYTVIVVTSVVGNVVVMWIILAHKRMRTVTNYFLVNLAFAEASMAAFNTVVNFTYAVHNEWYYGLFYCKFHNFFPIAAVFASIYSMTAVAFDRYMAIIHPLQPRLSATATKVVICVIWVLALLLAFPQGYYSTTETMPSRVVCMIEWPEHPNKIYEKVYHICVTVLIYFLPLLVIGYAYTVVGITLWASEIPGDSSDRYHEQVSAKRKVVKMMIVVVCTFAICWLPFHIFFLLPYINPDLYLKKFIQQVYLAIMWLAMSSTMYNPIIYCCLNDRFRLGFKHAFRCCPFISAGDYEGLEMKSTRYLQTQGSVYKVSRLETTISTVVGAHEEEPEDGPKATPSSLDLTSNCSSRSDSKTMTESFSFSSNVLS
Text: (§4) Supplementary Fig. 1: Molecular properties of sialokinin and its binding affinities to human neurokinin
(§5) (1 picture or pasted object on this page, not shown here)

human NK1R [2] = target: T1, human NK1R; test: Calcium flux assay, CHO cells expressing human NK1R; conditions: CHO-K1 cells expressing human NK1R; FLIPR; mean ± SEM of three independent experiments in triplicate; read-out: EC50 (peak calcium response)
Method: (§6) We assessed the binding affinity of sialokinin I, the predominant form in Aedes saliva, for human NK receptors using a calcium flux assay.
(§7) Calcium flux assay was carried out on CHO cells stably transfected with one of the human NK receptors (NK1R, NK2R, or NK3R). CHO cells were seeded at a density of 70,000 cells/well in 100 µL of Ham’s F-12 media in a black 96-well clear-bottom plate (Greiner). After overnight incubation, the media was replaced with Calcium 6 assay dye from Molecular Devices (1:1 dilution with buffer solution of 1× HBSS containing 20 mM HEPES) followed by incubation for 2 h at 37 °C for the absorption of dye into the cytoplasm. The intracellular calcium ion flux analysis was performed at different concentrations of sialokinin (tenfold dilution) using a FLIPR Tetra instrument (Molecular Devices). Fluorescence signal was recorded at excitation and emission wavelengths of 485 nm and 535 nm, respectively. The change in fluorescence is presented as the percent change with respect to baseline fluorescence. EC50 values were determined from dose-response curves plotted using Prism 5 (GraphPad).
as §4, §5

human NK2R = target: T2, human NK2R (Homo sapiens, UniProt P21452); test: Calcium flux assay, CHO cells expressing human NK2R; conditions: CHO-K1 cells expressing human NK2R; FLIPR; mean ± SEM of three independent experiments in triplicate; read-out: EC50 (peak calcium response)
T2 construct: expressed in transfected cells; host or cells: CHO (CHO-K1) cells, stably transfected; gift from Dr Shinya Oishi, Kyoto University
T2 sequence (P21452 1-398): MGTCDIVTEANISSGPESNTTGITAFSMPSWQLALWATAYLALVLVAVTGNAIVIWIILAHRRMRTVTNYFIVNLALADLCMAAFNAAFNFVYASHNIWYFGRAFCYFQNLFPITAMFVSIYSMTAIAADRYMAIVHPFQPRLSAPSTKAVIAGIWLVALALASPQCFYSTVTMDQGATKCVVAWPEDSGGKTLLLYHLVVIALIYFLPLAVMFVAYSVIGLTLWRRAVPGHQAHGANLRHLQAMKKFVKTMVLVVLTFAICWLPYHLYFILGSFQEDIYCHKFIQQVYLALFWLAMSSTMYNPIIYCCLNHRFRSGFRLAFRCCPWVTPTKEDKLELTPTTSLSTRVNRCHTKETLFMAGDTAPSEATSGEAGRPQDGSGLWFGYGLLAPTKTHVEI
Method: as §6, §7, §4, §5

human NK3R = target: T3, human NK3R (Homo sapiens, UniProt P29371); test: Calcium flux assay, CHO cells expressing human NK3R; conditions: CHO-K1 cells expressing human NK3R; FLIPR; mean ± SEM of three independent experiments in triplicate; read-out: EC50 (peak calcium response)
T3 construct: expressed in transfected cells; host or cells: CHO (CHO-K1) cells, stably transfected; gift from Dr Shinya Oishi, Kyoto University
T3 sequence (P29371 1-465): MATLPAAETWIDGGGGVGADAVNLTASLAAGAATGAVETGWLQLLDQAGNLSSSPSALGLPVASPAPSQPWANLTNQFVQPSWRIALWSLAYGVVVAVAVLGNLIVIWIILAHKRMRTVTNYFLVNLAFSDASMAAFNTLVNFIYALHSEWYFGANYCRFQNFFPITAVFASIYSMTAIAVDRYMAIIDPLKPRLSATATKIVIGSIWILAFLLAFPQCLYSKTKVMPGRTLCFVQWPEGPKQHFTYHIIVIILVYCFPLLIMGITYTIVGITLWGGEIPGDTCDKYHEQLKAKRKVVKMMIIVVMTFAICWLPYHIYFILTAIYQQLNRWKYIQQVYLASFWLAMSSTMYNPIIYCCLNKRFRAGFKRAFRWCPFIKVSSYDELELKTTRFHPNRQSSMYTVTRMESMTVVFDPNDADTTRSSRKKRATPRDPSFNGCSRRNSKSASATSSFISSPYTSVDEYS
Method: as §6, §7, §4, §5

[3] = GR-159897 + sialokinin, individual replicates

Compound: O=c1cc(N2CCOCC2)oc2c(-c3ccccc3)cccc12 [LY-294002]
- CD 169 expression (MFI) (primary human monocytes; LY-294002 + sialokinin, individual replicates): 182 MFI and 164 MFI and 106 MFI and 91.9 MFI and 143 MFI
- CD 169 expression (MFI) (primary human monocytes; LY-294002 inhibitor only, individual replicates): 216 MFI and 280 MFI and 107 MFI and 103 MFI and 164 MFI
- effect on sialokinin-mediated downregulation of CD169 (primary human monocytes): completely blocked

Compound: COC1(C[S@@+]([O-])c2ccccc2)CCN(CCc2c[nH]c3ccc(F)cc23)CC1 [GR-159897]
- effect on sialokinin-stimulated phosphorylation of PI3K (PI3K): reduced
- P-PI3K/PI3K (expression relative to untreated control) (PI3K; pre-treatment with NK2R antagonist then sialokinin, 20 min, individual replicates, n = 4): 0.877 and 0.977 and 0.987 and 0.967
- effect on sialokinin-stimulated phosphorylation of Akt (Akt): reduced
- P-Akt/Akt (expression relative to untreated control) (Akt; pre-treatment with NK2R antagonist then sialokinin, 20 min, individual replicates, n = 5): 0.9906 and 1.222 and 1.192 and 0.816 and 0.7836
- CD169 relative fold change (primary human monocytes; [3]): 0.8629 and 0.8036 and 0.6381 and 0.8197 and 0.5757
- CD 169 expression (MFI) (primary human monocytes; [3]): 1530 MFI and 1669 MFI and 977 MFI and 2300 MFI and 1731 MFI
- CD 169 expression (MFI) (primary human monocytes; GR-159897 inhibitor only, individual replicates): 1773 MFI and 2077 MFI and 1531 MFI and 2806 MFI and 3007 MFI
- effect on sialokinin-mediated downregulation of CD169 (primary human monocytes): only partially neutralized

Compound: COc1ccccc1CN[C@H]1C2CCN(CC2)[C@H]1C(c1ccccc1)c1ccccc1 [CP-96345]
- effect on Emax of sialokinin at NK1R (human NK1R [1]): without affecting the Emax value
- effect on sialokinin-stimulated phosphorylation of PI3K (PI3K): reduced
- effect on sialokinin-stimulated phosphorylation of Akt (Akt): reduced
- CD 169 expression (MFI) (primary human monocytes; CP-96345 + sialokinin, individual replicates): 387 MFI and 396 MFI and 194 MFI and 919 MFI and 1966 MFI
- CD 169 expression (MFI) (primary human monocytes; CP-96345 inhibitor only, individual replicates): 586 MFI and 529 MFI and 236 MFI and 1225 MFI and 3060 MFI
- effect on sialokinin-mediated downregulation of CD169 (primary human monocytes): only partially neutralized

Compound: NTGDKFYGLM-NH2 [Sialokinin I]
- EC50 (human NK1R [2]): 52 ± 28 pM
- EC50 (human NK2R): 288 ± 107 pM
- EC50 (human NK3R): 1290 ± 281 pM
